Experimental data reported in article PMC4992173, “Divergent synthesis and identification of the cellular targets of deoxyelephantopins” (Nature Communications, 2016).

How the values were obtained:
[1] = Cell viability in MCF7 cells, compounds at 1 μM for 3 days; assay type: cell-based; conditions: human, 1 μM concentration, read-out: cellular viability
Procedure: We began our biological investigations by assaying the cytotoxicity of natural deoxyelephantopin (DEP) and its unnatural analogues in four different cancer cell lines (Fig. 5a, Supplementary Figs 6–8).
Supplementary figure 8: Cell viability measurements in MCF7 cells. All compounds were tested at 1 μM concentration for 3 days (values±SD are shown; n = 3).
Supplementary figure 9: Propidium iodide and DAPI staining of MCF7 cells treated with either DMSO, 10% ethanol (necrosis positive control) or 20 µM DEP for 8 h. Scale bar […]
Biological materials. All materials were purchased from Sigma Aldrich unless otherwise stated. DMEM/High glucose media, phosphate buffered saline (PBS), MEM Non-Essential Amino Acids, Penicillin-Streptomycin (Pen/Strep) and Trypsin-EDTA were obtained from Life Technologies. Protein concentration was determined using the Bradford assay (Bio-Rad).
Cell culture and preparation of lysates. […] Cells were lysed by sonication to form cell lysates and protein concentration was determined using the Bradford […]
’ cells/mL and HeLa: 1 ’ cells/mL) in a 96-well plate and allowed to attach overnight. […] Cells were imaged using a SpectraMax i3 plate reader equipped with a SpectraMax MiniMax imaging cytometer (Molecular Devices). […]
Caspase activity labeling for fluorescence cell imaging. […]

[2] = target: T1, Thioredoxin domain-containing protein 12 (TXNDC12) (Homo sapiens, UniProt O95881); assay: SILAC competitive profiling with probe 24c in MCF7 lysates: TXNDC12; assay type: binding; conditions: 1 h, then 10 µM 24c
T1 construct: endogenous in cells; host or cells: MCF7
Description: In our efforts to determine the direct molecular targets of deoxyelephantopin we first performed a gel-based competitive in situ proteomic profiling assay[41] […] While the greater conformational flexibility of probe 24c could potentially lead to more promiscuous target engagement relatively to deoxyelephantopin, it was favoured based on the fact that an alkyne moiety appended to the rigid scaffold of deoxyelephantopin may hinder some of its interactions. MCF7 cells were pretreated with various concentrations of deoxyelephantopin for 4 h, harvested, lysed and the lysates were treated with the fluorogenic probe 24c-Cy3 (10 μM; Supplementary Fig. 10). […] Furthermore, cells were pretreated with 20 μM concentration of deoxyelephantopin or 24c and the proteomic profiles were compared (Fig. 6b, Supplementary Fig. 11). Multiple bands were detected that were equally competed by both DEP and 24c, thus again confirming that 24c can be used as an acceptable clickable analogue of deoxyelephantopin in pulldown assays. Having established the optimal labelling conditions by SDS–PAGE, we next carried out a mass spectrometry-based competitive profiling assay[42] coupled with the method of stable isotope labelling of amino acids in culture (SILAC)[43]. […]
visualization were performed as described above. Images were quantified with ImageJ and kinetics values were calculated using GraphPad Prism (V6.03). […]

T1 sequence (O95881 27-172): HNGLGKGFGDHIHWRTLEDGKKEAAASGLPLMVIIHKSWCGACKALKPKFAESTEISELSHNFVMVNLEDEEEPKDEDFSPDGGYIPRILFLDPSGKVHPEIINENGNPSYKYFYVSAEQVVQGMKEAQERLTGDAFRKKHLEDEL

C=C(C)C(=O)O[C@H]1CC2=C[C@@H](C/C(C)=C/[C@H]3OC(=O)C(=C)[C@H]13)OC2=O [deoxyelephantopin]
viability at 3 days, 1 µM [1]: < 30%
SILAC ratio 20 µM Deoxyelephantopin/DMSO with 24c [2]: 0.12
